For the assay, the target named is T1, HCV-NS5b (Hepatitis C virus genotype 1b, UniProt Q9WMX2).
T1 construct: (His)6 (C); made in house; host or cells: XL-1 cells (E. coli), IPTG-inducible plasmid, nickel-NTA purification
Nature of the assay: HCV-NS5b enzyme assay (incorporation of radiolabeled UTP). The format is biochemical. The settings on record: for inhibition at 33 µM: enzyme inhibition at compound concentration of 33 uM; for inhibition at 100 µM: read-out: % inh@100, enzyme inhibition at compound concentration of 100 uM. The source says:
The coding sequence of NS5b protein was cloned by PCR from pFKI389luc/NS3-3′/ET as described by Lohmann, V., et al. (1999) Science 285, 110-113 using the following primers: […]
The cloned fragment was missing the C terminus 21 amino acid residues. The cloned fragment was inserted into an IPTG-inducible expression plasmid that provided an epitope tag (His)6 at the carboxy terminus of the protein.
The recombinant enzyme was expressed in XL-1 cells and after induction of expression, the protein was purified using affinity chromatography on a nickel-NTA column. Storage condition was 10 mM Tris-HCl pH 7.5, 50 mM NaCl, 0.1 mM EDTA, 1 mM DTT, 20% glycerol at −20° C.
The polymerase activity was assayed by measuring incorporation of radiolabeled UTP into a RNA product using a biotinylated, heteropolymeric template, which included a portion of the HCV genome. Typically, the assay mixture (50 μL) contained 10 mM Tris-HCl (pH 7.5), 5 mM MgCl2, 0.2 mM EDTA, 10 mM KCl, 1 unit/μL RNAsin, 1 mM DTT, 10 μM each of NTP, including [^3H]-UTP, and 10 ng/μL heteropolymeric template. Test compounds were initially dissolved in 100% DMSO and further diluted in aqueous buffer containing 5% DMSO. Typically, compounds were tested at concentrations between 1 nM and 100 μM. Reactions were started with addition of enzyme and allowed to continue at 37° C. for 2 hours. Reactions were quenched with 8 μL of 100 mM EDTA and reaction mixtures (30 μL) were transferred to streptavidin-coated scintillation proximity microtiter plates (FlashPlates) and incubated at 4° C. overnight. Incorporation of radioactivity was determined by scintillation counting.
Shown in Table IX below are the values for enzyme inhibition measured at compound concentrations of 100 and 33 uM, (% inh@[…] and % inh@33, respectively). The percent inhibition values are calculated from the differential incorporation of radioactivity compared to a control reaction without compound: % inhibition=100−[(CountsINH−CountsBKG)/CountsCTRL−CountsBKG)×100 where CountsINH is the signal of the testwell with inhibitor, CountsBKG is the background signal and CountsCTRL is the signal of a testwell without inhibitor.

Molecules are shown by their SMILES.

Take `COc1ccc(-c2ccc(F)c(Cl)c2)c(-c2ccc3cc(-c4nc5cc(C(=O)O)ccc5n4C4CCCCC4)ccc3n2)c1` [Compound 366, 2-[2-(3′-chloro-4′-fluoro-4-methoxy-biphen-2-yl)-quinolin-6-yl]-1-cyclohexyl-1H-benzoimidazole-5-carboxylic acid]: the inhibition at 33 µM turned out to be 97.6% and the inhibition at 100 µM came to 99.4%.

As for `COc1ccc(-c2cccc(C)c2)c(-c2ccc3cc(-c4nc5cc(C(=O)O)ccc5n4C4CCCCC4)ccc3n2)c1` [Compound 367, 1-cyclohexyl-2-[2-(4-methoxy-3′-methyl-biphen-2-yl)-quinolin-6-yl]-1H-benzoimidazole-5-carboxylic acid], the inhibition at 33 µM was found to be 103% and the inhibition at 100 µM was determined as 101%.

For the compound `NC(=O)[C@H](Cc1cnc[nH]1)NC(=O)c1ccc2cc(-c3nc4cc(C(=O)O)ccc4n3C3CCCCC3)ccc2n1` [Compound 368], the inhibition at 33 µM came to 51.2% and the inhibition at 100 µM stood at 79.5%.

For the compound `O=C(O)c1ccc2c(c1)nc(-c1ccc3nc(-c4ccccc4-c4ccncc4)ccc3c1)n2C1CCCCC1` [Compound 369, 1-Cyclohexyl-2-[2-(2-pyrid-4-yl-phenyl)-quinolin-6-yl]-1H-benzoimidazole-5-carboxylic acid], the inhibition at 33 µM came out at 96.2% and the inhibition at 100 µM was 98.8%.

For the compound `O=C(O)c1ccc2c(c1)nc(-c1ccc3nc(-c4cccc(C(=O)N5CCCC5)c4)ccc3c1)n2C1CCCCC1` [Compound 370, 1-Cyclohexyl-2-{2-[3-(pyrrolidine-1-carbonyl)-phenyl]-quinolin-6-yl}-1H-benzoimidazole-5-carboxylic acid], the inhibition at 33 µM stood at 97.8% and the inhibition at 100 µM was 99.7%.

As to `Nc1ccc(-c2ccc3cc(-c4nc5cc(C(=O)O)ccc5n4C4CCCCC4)ccc3n2)cc1Br` [Compound 372, 2-[2-(4-amino-3-bromo-phenyl)-quinolin-6-yl]-1-cyclohexyl-1H-benzoimidazole-5-carboxylic acid], the inhibition at 33 µM stood at 98.1% and the inhibition at 100 µM came to 98.2%.

For `O=C(O)c1ccc2c(c1)nc(-c1ccc3[nH]c(-c4ccccc4)cc(=O)c3c1)n2C1CCCCC1` [Compound 373, 1-cyclohexyl-2-(4-oxo-2-phenyl-1,4-dihydro-quinolin-6-yl)-1H-benzoimidazole-5-carboxylic acid], the inhibition at 33 µM was determined as 39.9% and the inhibition at 100 µM came to 83.8%.

For the compound `NC(=O)c1cc(-c2ccc3cc(-c4nc5cc(C(=O)O)ccc5n4C4CCCCC4)ccc3n2)ccc1O` [Compound 374, 2-[2-(3-carbamoyl-4-hydroxy-phenyl)-quinolin-6-yl]-1-cyclohexyl-1H-benzoimidazole-5-carboxylic acid], the inhibition at 33 µM stood at 97.6% and the inhibition at 100 µM is 98.3%.

On to `O=C(O)c1ccc2c(c1)nc(-c1ccc3nc(-c4cc(OCC(=O)N5CCCC5)ccc4-c4ccc(Cl)cc4)ccc3c1)n2C1CCCCC1` [Compound 376, 2-{2-[4′-Chloro-4-(2-oxo-2-pyrrolidin-1-yl-ethoxy)-biphen-2-yl]-quinolin-6-yl}-1-cyclohexyl-1H-benzoimidazole-5-carboxylic acid], for which the inhibition at 33 µM is 97.4% and the inhibition at 100 µM stood at 97.2%.

On to `NC(=O)CNC(=O)c1ccc(-c2ccccc2)c(-c2ccc3cc(-c4nc5cc(C(=O)O)ccc5n4C4CCCCC4)ccc3n2)c1` [Compound 377, 2-{2-[4-(Carbamoylmethyl-carbamoyl)-biphen-2-yl]-quinolin-6-yl}-1-cyclohexyl-1H-benzoimidazole-5-carboxylic acid], for which the inhibition at 33 µM is 99.2% and the inhibition at 100 µM amounted to 99.4%.

In the case of `CNC(=O)c1ccc(-c2ccc(Cl)cc2)c(-c2ccc3cc(-c4nc5cc(C(=O)O)ccc5n4C4CCCCC4)ccc3n2)c1` [Compound 378, 2-[2-(4′-chloro-4-methylcarbamoyl-biphen-2-yl)-quinolin-6-yl]-1-cyclohexyl-1H-benzoimidazole-5-carboxylic acid], the inhibition at 33 µM worked out at 100% and the inhibition at 100 µM stood at 101%.

Consider `Cc1cc(-c2nc3cc(C(=O)O)ccc3n2C2CCCCC2)cc2ccc(-c3ccccc3-c3ccccc3)nc12` [Compound 379, 2-(2-Biphen-2-yl-8-methyl-quinolin-6-yl)-1-cyclohexyl-1H-benzoimidazole-5-carboxylic acid], for which the inhibition at 33 µM came to 93.3% and the inhibition at 100 µM came out at 97.8%.

In the case of `O=C(O)c1ccc2c(c1)nc(-c1ccc3nc(-c4ccccc4)cc(Nc4ccc(Cl)cc4)c3c1)n2C1CCCCC1` [Compound 380, 2-[4-(4-chloro-phenylamino)-2-phenyl-quinolin-6-yl]-1-cyclohexyl-1H-benzoimidazole-5-carboxylic acid], the inhibition at 33 µM stood at 97.6% and the inhibition at 100 µM came out at 101%.

Consider `O=C(O)c1ccc2c(c1)nc(-c1ccc3nc(-c4cc(O)cc(O)c4)ccc3c1)n2C1CCCCC1` [Compound 381, 1-cyclohexyl-2-[2-(3,5-dihydroxy-phenyl)-quinolin-6-yl]-1H-benzoimidazole-5-carboxylic acid], for which the inhibition at 33 µM was 94.3% and the inhibition at 100 µM was found to be 98%.

`COc1ccc(-c2ccc(C(N)=O)cc2)c(-c2ccc3cc(-c4nc5cc(C(=O)O)ccc5n4C4CCCCC4)ccc3n2)c1` [Compound 382, 2-[2-(4′-carbamoyl-4-methoxy-biphen-2-yl)-quinolin-6-yl]-1-cyclohexyl-1H-benzoimidazole-5-carboxylic acid]: the inhibition at 33 µM came out at 101% and the inhibition at 100 µM came out at 101%.

For the compound `COc1ccc(-c2ccc(CN)cc2)c(-c2ccc3cc(-c4nc5cc(C(=O)O)ccc5n4C4CCCCC4)ccc3n2)c1` [Compound 384, 2-[2-(4′-aminomethyl-4-methoxy-biphen-2-yl)-quinolin-6-yl]-1-cyclohexyl-1H-benzoimidazole-5-carboxylic acid], the inhibition at 33 µM is 95.5% and the inhibition at 100 µM was determined as 99.3%.

For the compound `NC(=O)[C@H](CO)NC(=O)c1ccc2cc(-c3nc4cc(C(=O)O)ccc4n3C3CCCCC3)ccc2n1` [Compound 385, 2-[2-(1-Carbamoyl-2-hydroxyethylcarbamoyl)quinolin-6-yl]-1-cyclohexyl-1H-benzimidazole-5-carboxylic acid], the inhibition at 33 µM was 42.6% and the inhibition at 100 µM was 76.2%.

As for `O=C(O)c1ccc2c(c1)nc(-c1ccc3nc(-c4ccccc4)c(-c4ccccc4)cc3c1)n2C1CCCCC1` [Compound 386, 1-cyclohexyl-2-(2,3-diphenyl-quinolin-6-yl)-1H-benzoimidazole-5-carboxylic acid], the inhibition at 33 µM stood at 100% and the inhibition at 100 µM came to 99.9%.

For the compound `O=C(O)c1ccc2c(c1)nc(-c1ccc3nc(-c4ccccc4-c4ccc(Cl)cc4)ccc3c1)n2C1CCCCC1` [Compound 387, 2-[2-(4′-Chloro-biphen-2-yl)-quinolin-6-yl]-1-cyclohexyl-1H-benzoimidazole-5-carboxylic acid], the inhibition at 33 µM amounted to 99% and the inhibition at 100 µM turned out to be 98.7%.

Take `O=C(O)c1ccc2c(c1)nc(-c1cc3ccc(-c4ccccc4-c4ccccc4)nc3cc1F)n2C1CCCCC1` [Compound 388, 2-(2-Biphen-2-yl-7-fluoro-quinolin-6-yl)-1-cyclohexyl-1H-benzoimidazole-5-carboxylic acid]: the inhibition at 33 µM was determined as 98.7% and the inhibition at 100 µM came out at 98.6%.

`Cc1ccc(-c2nc3ccc(-c4nc5cc(C(=O)O)ccc5n4C4CCCCC4)cc3nc2-c2ccc(C)cc2)cc1` [Compound 389, 1-Cyclohexyl-2-(2,3-di-p-tolylquinoxalin-6-yl)-1H-benzimidazole-5-carboxylic acid]: the inhibition at 33 µM amounted to 99.9% and the inhibition at 100 µM amounted to 99.5%.

Consider `O=C(O)c1ccc2c(c1)nc(-c1ccc3nc(-c4ccc(-c5ccccc5)cc4)ccc3c1)n2C1CCCCC1` [Compound 390, 2-(2-biphenyl-4-yl-quinolin-6-yl)-1-cyclohexyl-1H-benzoimidazole-5-carboxylic acid], for which the inhibition at 33 µM was 79.9% and the inhibition at 100 µM is 92.5%.

As to `Cc1nc(N)sc1-c1ccc2cc(-c3nc4cc(C(=O)O)ccc4n3C3CCCCC3)ccc2n1` [Compound 391], the inhibition at 33 µM is 94.1% and the inhibition at 100 µM is 97.5%.

On to `O=C(O)c1ccc2c(c1)nc(-c1ccc3nc(CCCO)ccc3c1)n2C1CCCCC1` [Compound 392, 1-Cyclohexyl-2-[2-(3-hydroxy-propyl)-quinolin-6-yl]-1H-benzoimidazole-5-carboxylic acid], for which the inhibition at 33 µM was 83.8% and the inhibition at 100 µM is 93.5%.

Values taken from patent US7511145B2 (Genelabs Technologies, Inc., priority 2003, dated 2009).
